Laboratory results published in patent US4414388A, “1-Oxo-1H-thiazolo[3,2-a]pyrimidine-2-carboxamides” (Pfizer Inc., priority 1981, dated 1983).
Entries after “also recorded” stand apart in the source; their conditions may differ. Counter-ions that a name gives are not always drawn.

Columns and labels:
[1] = plasma concentration / oral absorption in rats; type: in vivo, rat; details: rat; oral dosing of III
Description: (§1) This is supported by the observations of plasma concentrations of 3 to 7 μg/ml one hour after oral administration of III, 50 to 300 mg/kg.

[2] = plasma concentration / oral absorption in dogs; type: in vivo, dog; details: dog; oral dosing of III
Description: as §1

allergy and ulcer = experiment: antiallergy and antiulcer activity, general statement; details: in vivo
Description: (§2) The antiallergy property of the compounds of this invention is evaluated by the passive cutaneous anaphylaxis (PCA) test (Ovary, J. Immun., 81, 355, 1958). In the PCA test, normal animals are injected intradermally (i.d.) with antibodies contained in serum obtained from actively sensitized animals. The animals are then challenged intravenously with antigen mixed with a dye such as Evans' Blue. The increased capillary permeability caused by the antigen-antibody reaction causes the dye to leak from the site of the antibody injection. The test animals are then asphyxiated and the intensity of the reaction determined by measuring the diameter and intensity of the blue coloration on the inner surface of the animals' skin.
The antiulcer activity of the compounds of the present invention is evaluated by the so-called cold-restraint stressed rat assay. Alternatively, the antiulcer activity is determined in a newly established ethanol-induced rat ulcer assay described below.

IgE = experiment: passive cutaneous anaphylaxis (PCA) test, oral, IgE (reaginic antiserum) site; type: in vivo, rat; details: Table I; for inhibition in vivo at 30 mg/kg: Rattus norvegicus, read-out: Oral Activity (% of Protection) of Amides in the PCA Test, IgE 30 mg./kg.
Description: as §2
(§3) The PCA test is a measure of the anti-allergic (especially anti-asthmatic) activity of a compound. Compounds which inhibit a positive PCA test induced by the rat immunochemical counterpart of human immunoglobulin E (IgE), or reagin, are considered to have anti-allergic activity (C. Mota, Ann. N.Y. Acad. Sci., 103, 264 1963). (Reagin is primarily immunoglobulin E [IgE] and is the principal immunoglobulin responsible for allergic asthma, anaphylaxis, hay fever, food sensitivities and certain manifestations of drug sensitivities, although recent evidence ascribes to the IgG class of antibodies a significant role in the mediation of allergic diseases). Such compounds when administered to a sensitized subject, human or animal, prior to the time when the subject comes into contact with antigens or substances to which it is allergic, will prevent the allergic reaction which would otherwise occur. They, therefore, provide a method for the prophylactic treatment of allergy or anaphylactic reactions of a reagin mediated nature.
(§4) To put it another way, such compounds block the release of mediators resulting from the antigen-antibody (allergic) reaction as illustrated in the PCA test using rat homocytotropic antibody--a known correlate of human reaginic antibody. Inhibition of reaginic antigen-antibody reactions in rats, the test animal of the PCA test, is regarded as representative of inhibition of human reaginic antigen-antibody reactions which occur during allergic episodes.
(§5) The ability of agents to interfere with PCA reactions is measured in male Charles River Wistar rats, 170-210 g. Reaginic antiserum, rich in IgE antibodies, is prepared according to Petillo et al., Int. Arch. Allergy, 44, 309 (1973). Hyperimmune antiserum rich in IgG antibodies to hen egg albumin is prepared according to Orange et al., J. Exptl. Med., 127, 767 (1968). Forty-eight hours prior to antigen challenge, the reaginic antiserum is injected intradermally (i.d.) into the shaved skin of a normal rat's back; 5 hours before challenge the hyperimmune antisera is similarly injected. At a third site 60 mcg. histamine dihydrochloride and 0.5 mcg. serotonin creatinine sulfate are injected i.d. just prior to antigen challenge as a check for antihistaminic, antiserotonin and unspecific types of blockage; the compounds of the instant invention or saline are then administered i.v. and immediately followed by the challenge of 5 mg. egg albumen and 2.5 mg. Evans' Blue dye in saline. In the case of oral administration Evans' Blue dye and egg albumin are given 5 minutes after administration of the drug. Thirty minutes later the animals are asphyxiated using chloroform and the skin of the back removed and reversed for observation. A score is assigned each injection site equal to the product of the diameter of the site in mm. and a grade of 0.1, 0.5, 1, 2, 3 or 4 proportional to intensity of dye coloration. The scores for a given injection site are summed for each group of five animals and compared to the saline treated controls. The difference is expressed as percent blockage due to the compound employed. […]

IgG = experiment: passive cutaneous anaphylaxis (PCA) test, oral, IgG (hyperimmune antiserum) site; type: in vivo, rat; details: Table I; for inhibition in vivo at 30 mg/kg: Rattus norvegicus, read-out: Oral Activity (% of Protection) of Amides in the PCA Test, IgG 30 mg./kg.
Description: as §2, §3, §4, §5

mediators of anaphylaxis = details: cited from earlier work
[3] = test system: dextran induced release of histamine; experiment: dextran induced release of histamine into the rat peritoneal cavity; type: in vivo; details: ip
Description: Compound III inhibits dextran induced release of histamine into the rat peritoneal cavity.

gastric ulcers = details: animals, including humans; cited from earlier work
[4] = water solubility and hygroscopicity of the sodium salt; type: physicochemical; details: sodium salt (trihydrate)

O=C(O)c1cnc2sc3c(n2c1=O)CCCC3 [Acid II, R1R2 = (CH2)4, 1-oxo-1H-cyclohexenothiazolo[3,2-a]pyrimidine-2-carboxylic acid]
plasma levels of the carboxylic acid metabolite compared with III, rat [1]: comparable to those of III
plasma levels of the carboxylic acid metabolite compared with III, dog [2]: comparable to those of III
activity of metabolite, in words (allergy and ulcer): good activity

CCc1sc2ncc(C(=O)Nc3nnn[nH]3)c(=O)n2c1CC [Amide I, R1 = C2 H5, R2 = C2 H5, N-(5-tetrazolyl)-1-oxo-1H-6,7-diethylthiazolo[3,2-a]pyrimidine-2-carboxamide]
Oral Activity (% of Protection) of Amides in the PCA Test, IgE 10 mg./kg. (IgE): 62%
Oral Activity (% of Protection) of Amides in the PCA Test, IgG 10 mg./kg. (IgG): 49%

CCc1c(C)sc2ncc(C(=O)Nc3nnn[nH]3)c(=O)n12 [Amide I, R1 = CH3, R2 = C2 H5, N-(5-tetrazolyl)-1-oxo-1H-6-methyl-7-ethylthiazolo[3,2-a]pyrimidine-2-carboxamide]
Oral Activity (% of Protection) of Amides in the PCA Test, IgE 10 mg./kg. (IgE): 75%
Oral Activity (% of Protection) of Amides in the PCA Test, IgG 10 mg./kg. (IgG): 57%

CCc1csc2ncc(C(=O)Nc3nnn[nH]3)c(=O)n12 [Amide I, R1 = H, R2 = C2 H5, N-(5-tetrazolyl)-1-oxo-1H-7-ethylthiazolo[3,2-a]pyrimidine-2-carboxamide]
Oral Activity (% of Protection) of Amides in the PCA Test, IgE 10 mg./kg. (IgE): 70%
Oral Activity (% of Protection) of Amides in the PCA Test, IgG 10 mg./kg. (IgG): 44%

CC(C)(C)c1csc2ncc(C(=O)Nc3nnn[nH]3)c(=O)n12 [Amide I, R1 = H, R2 = C(CH3)3, N-(5-tetrazolyl)-1-oxo-1H-7-(2-methyl-2-propyl)thiazolo[3,2-a]pyrimidine-2-carboxamide]
Oral Activity (% of Protection) of Amides in the PCA Test, IgE 10 mg./kg. (IgE): 37%
Oral Activity (% of Protection) of Amides in the PCA Test, IgG 10 mg./kg. (IgG): 20%

CC(C)c1csc2ncc(C(=O)Nc3nnn[nH]3)c(=O)n12 [Amide I, R1 = H, R2 = CH(CH3)2, N-(5-tetrazolyl)-1-oxo-1H-7-isopropylthiazolo[3,2-a]pyrimidine-2-carboxamide]
Oral Activity (% of Protection) of Amides in the PCA Test, IgE 10 mg./kg. (IgE): 72%
Oral Activity (% of Protection) of Amides in the PCA Test, IgG 10 mg./kg. (IgG): 53%

O=C(Nc1nnn[nH]1)c1cnc2sc3c(n2c1=O)CCC3 [Amide I, R1R2 = (CH2)3, N-(5-tetrazolyl)-1-oxo-1H-cyclopentenothiazolo[3,2-a]pyrimidine-2-carboxamide]
Oral Activity (% of Protection) of Amides in the PCA Test, IgE 3 mg./kg. (IgE; 3 mg./kg.): 46%
Oral Activity (% of Protection) of Amides in the PCA Test, IgG 3 mg./kg. (IgG; 3 mg./kg.): 43%

O=C(Nc1nnn[nH]1)c1cnc2sc3c(n2c1=O)CCCCC3 [Amide I, R1R2 = (CH2)5, N-(5-tetrazolyl)-1-oxo-1H-cycloheptenothiazolo[3,2-a]pyrimidine-2-carboxamide]
Oral Activity (% of Protection) of Amides in the PCA Test, IgE 10 mg./kg. (IgE): 25%
Oral Activity (% of Protection) of Amides in the PCA Test, IgG 10 mg./kg. (IgG): 38%

O=C(Nc1nnn[nH]1)c1cnc2sc3c(n2c1=O)CCCCCC3 [Amide I, R1R2 = (CH2)6, N-(5-Tetrazolyl)-1-oxo-1H-cyclooctenothiazolo[3,2-a]pyrimidine-2-carboxamide]
Oral Activity (% of Protection) of Amides in the PCA Test, IgE 10 mg./kg. (IgE): 94%
Oral Activity (% of Protection) of Amides in the PCA Test, IgG 10 mg./kg. (IgG): 57%

CC1(C)CCc2c(sc3ncc(C(=O)Nc4nnn[nH]4)c(=O)n23)C1 [Amide I, R1R2 = CH2 C(CH3)2 CH2 CH2, N-(5-Tetrazolyl)-1-oxo-1H-7,7-dimethylcyclohexenothiazolo[3,2-a]pyrimidine-2-carboxamide]
inhibition in vivo at 30 mg/kg (IgE): 38%
inhibition in vivo at 30 mg/kg (IgG): 27%

O=C(Nc1nnn[nH]1)c1cnc2sc3c(n2c1=O)CCC(c1ccccc1)C3 (centres unmarked) [Amide I, R1R2 = CH2 CH(C5 H6)CH2 CH2, N-(5-tetrazolyl)-1-oxo-1H-7-phenylcyclohexenothiazolo[3,2-a]pyrimidine-2-carboxamide]
inhibition in vivo at 30 mg/kg (IgE): 4%
inhibition in vivo at 30 mg/kg (IgG): 7%

CC1CCc2c(sc3ncc(C(=O)Nc4nnn[nH]4)c(=O)n23)C1 (centres unmarked) [Amide I, R1R2 = CH2 CH(CH3)CH2 CH2, N-(5-tetrazolyl)-1-oxo-1H-7-methylcyclohexenothiazolo[3,2-a]pyrimidine-2-carboxamide]
inhibition in vivo at 30 mg/kg (IgE): 44%
inhibition in vivo at 30 mg/kg (IgG): 33%

O=C(O)c1cc(=O)c2c(OCC(O)COc3cccc4oc(C(=O)O)cc(=O)c34)cccc2o1 [Intal, 1,3-bis(2-carboxycromon-5-yloxy)-2-hydroxy-propane]
bronchodilator activity (mediators of anaphylaxis; in vivo): not a bronchodilator
release of mediators of anaphylaxis (mediators of anaphylaxis; in vivo): inhibition of release of mediators of anaphylaxis
oral activity/efficacy of Intal (mediators of anaphylaxis; oral route): lacks efficacy by the oral route; also recorded: not active by the oral route; also recorded: lack of oral efficacy
ED50 [3]: 0.014 mg/kg

CCC(C)c1csc2ncc(C(=O)Nc3nnn[nH]3)c(=O)n12 (centres unmarked) [N-(5-Tetrazolyl)-1-oxo-1H-7-(2-butyl)thiazolo[3,2-a]pyrimidine-2-carboxamide]
inhibition in vivo at 30 mg/kg (IgE): 6%
inhibition in vivo at 30 mg/kg (IgG): 6%

CC1(C)[C@@H](OC(=O)CCC(=O)O)CC[C@]2(C)[C@H]3C(=O)C=C4[C@@H]5C[C@@](C)(C(=O)O)CC[C@]5(C)CC[C@@]4(C)[C@]3(C)CC[C@@H]12 [carbenoxolone sodium, disodium salt of the hemisuccinate of glycyrrhetinic acid]
effect on gastric ulcers (gastric ulcers): prevent formation of and to accelerate healing of gastric ulcers

CN/C(=N/CCSCc1nc[nH]c1C)NC#N [cimetidine]
effect on gastric ulcers (gastric ulcers): alleviates ulcers by reducing gastric acid secretion

O=C(Nc1nnn[nH]1)c1cnc2sc3c(n2c1=O)CCCC3 [sodium salt (trihydrate), sodium N-(5-tetrazolyl)-1-oxo-1H-cyclohexenothiazolo[3,2-a]pyrimidine-2-carboxamide trihydrate]
hygroscopicity [4]: non-hygroscopic
water solubility [4]: good water solubility
